Experimental data taken from ChEMBL document CHEMBL4028831, “Improvement of hERG-ROMK index of spirocyclic ROMK inhibitors through scaffold optimization and incorporation of novel pharmacophores” (Bioorg Med Chem Lett, 2017).
pIC50: −log10 of the molar value.

Tests used:
[1] = Unbound fraction in guinea pig plasma at 3 mg/kg administered as iv infusion; assay type: ADME, organism-based, Cavia porcellus; conditions: in vivo
[2] = Clearance in Wistar Han rat at 1 mg/kg, iv or 2 mg/kg, po; conditions: in vivo
[3] = Volume of distribution at steady state in Wistar Han rat at 1 mg/kg, iv or 2 mg/kg, po; conditions: in vivo
[4] = target: T1, Inward rectifier potassium channel 2 (Homo sapiens, UniProt P63252); assay: Inhibition of Kir2.1 (unknown origin)
T1 sequence (P63252 whole entry): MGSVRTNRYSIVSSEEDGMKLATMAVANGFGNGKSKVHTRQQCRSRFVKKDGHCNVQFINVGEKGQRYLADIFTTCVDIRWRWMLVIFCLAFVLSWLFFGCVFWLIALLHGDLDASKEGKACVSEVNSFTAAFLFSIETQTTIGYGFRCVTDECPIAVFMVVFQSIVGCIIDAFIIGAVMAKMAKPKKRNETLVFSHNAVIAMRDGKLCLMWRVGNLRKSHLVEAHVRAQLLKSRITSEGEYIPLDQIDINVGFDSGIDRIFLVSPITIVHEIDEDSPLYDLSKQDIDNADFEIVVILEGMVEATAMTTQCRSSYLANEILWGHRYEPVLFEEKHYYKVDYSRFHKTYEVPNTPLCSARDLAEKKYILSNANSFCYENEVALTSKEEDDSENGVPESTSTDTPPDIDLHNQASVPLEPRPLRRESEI

Cavia porcellus [5] = assay: Cardiotoxicity in anesthetized cardiovascular guinea pig model assessed as prolongation of QTc interval at 10 mg/kg administered as iv infusion relative to control; assay type: toxicity, organism-based; conditions: in vivo
Cavia porcellus [6] = assay: Cardiotoxicity in anesthetized cardiovascular guinea pig model assessed as prolongation of QTc interval administered as iv infusion; assay type: toxicity, organism-based; conditions: in vivo
Homo sapiens = species on record: Homo sapiens; assay: Unbound Cmax in human; assay type: ADME
[7] = Volume of distribution at steady state in Beagle dog at 1 mg/kg, iv; assay type: ADME, organism-based, Canis lupus familiaris; conditions: in vivo, read-out: Vdss
in vivo = conditions: Wistar Han, rat, po, 2 mg/kg

- Cp(f) [1]: 5.3 µM
- clearance [2]: 25 mL/min/kg
- Vd [3]: 3.3 L/kg
- pIC50 [4]: < 4.00
- fCmax (Homo sapiens): 0.12 µM
- Vd [7]: 5 L/kg
- bioavailability (in vivo): 78%
Compound: Cc1c([C@@H](O)CN2CCC3(CC2)CCN(c2ccc(=O)n(C)n2)C3=O)ccc2c1COC2=O
- Activity (Cavia porcellus [5]): 16%
- Activity (Cavia porcellus [6]): Dose-dependent effect
